Experimental data reported in the NIST ThermoML archive (doi:10.1016/j.jct.2017.08.035).
Numbers after ± are expanded uncertainties.

Experiment: wn = mass fraction of the nth substance listed
Conditions: for surface tension liquid-gas: Maximal bubble pressure; for mass density: 100 kPa, Liquid, Vibrating tube method

CCn1cc[n+](CCOC)c1.O=S(=O)([O-])C(F)(F)F + O
Conditions	mass density, w2 = 0.00185 [kg/m3]	mass density, w2 = 0.0038 [kg/m3]	mass density, w2 = 0.00537 [kg/m3]	mass density, w2 = 0.00665 [kg/m3]	mass density, w2 = 0.00891 [kg/m3]	surface tension liquid-gas, w2 = 0.0016 [mN/m]	surface tension liquid-gas, w2 = 0.00284 [mN/m]	surface tension liquid-gas, w2 = 0.00419 [mN/m]	surface tension liquid-gas, w2 = 0.0056 [mN/m]	surface tension liquid-gas, w2 = 0.007 [mN/m]
298.15 K	1355.32 ± 2.4	1354.72 ± 2.4	1354.29 ± 2.4	1353.79 ± 2.4	1353.19 ± 2.4	38.2 ± 0.4	38.4 ± 0.4	38.6 ± 0.4	38.8 ± 0.4	39 ± 0.4
303.15 K	1351.04 ± 2.4	1350.44 ± 2.4	1350 ± 2.4	1349.52 ± 2.4	1348.89 ± 2.4	37.9 ± 0.4	38.1 ± 0.4	38.3 ± 0.4	38.4 ± 0.4	38.6 ± 0.4
308.15 K	1346.78 ± 2.4	1346.18 ± 2.4	1345.72 ± 2.4	1345.26 ± 2.3	1344.62 ± 2.3	37.6 ± 0.4	37.8 ± 0.4	37.9 ± 0.4	38.1 ± 0.4	38.3 ± 0.4
313.15 K	1342.54 ± 2.4	1341.93 ± 2.3	1341.46 ± 2.3	1341.03 ± 2.3	1340.36 ± 2.3	37.3 ± 0.4	37.5 ± 0.4	37.7 ± 0.4	37.9 ± 0.4	38.1 ± 0.4
318.15 K	1338.31 ± 2.3	1337.7 ± 2.3	1337.22 ± 2.3	1336.82 ± 2.3	1336.12 ± 2.3	37.1 ± 0.4	37.3 ± 0.4	37.5 ± 0.4	37.7 ± 0.4	37.9 ± 0.4
323.15 K	1334.1 ± 2.3	1333.49 ± 2.3	1333 ± 2.3	1332.62 ± 2.3	1331.9 ± 2.3	36.8 ± 0.4	37 ± 0.4	37.2 ± 0.4	37.5 ± 0.4	37.7 ± 0.4
328.15 K	1329.9 ± 2.3	1329.3 ± 2.3	1328.79 ± 2.3	1328.44 ± 2.3	1327.7 ± 2.3	36.5 ± 0.4	36.7 ± 0.4	36.9 ± 0.4	37.1 ± 0.4	37.3 ± 0.4
333.15 K	1325.72 ± 2.3	1325.11 ± 2.3	1324.6 ± 2.3	1324.26 ± 2.3	1323.51 ± 2.3	36.3 ± 0.4	36.5 ± 0.4	36.7 ± 0.4	36.9 ± 0.4	37.1 ± 0.4
338.15 K	1321.54 ± 2.3	1320.94 ± 2.3	1320.43 ± 2.3	1320.1 ± 2.3	1319.34 ± 2.3	36 ± 0.4	36.2 ± 0.4	36.3 ± 0.4	36.5 ± 0.4	36.7 ± 0.4

CC(=O)[O-].CCn1cc[n+](CCOC)c1 [1-ethyl-3-(2-methoxyethyl)imidazolium acetate] + O
Conditions	mass density, w2 = 0.00822 [kg/m3]	mass density, w2 = 0.00966 [kg/m3]	mass density, w2 = 0.01112 [kg/m3]	mass density, w2 = 0.01254 [kg/m3]	mass density, w2 = 0.01399 [kg/m3]	surface tension liquid-gas, w2 = 0.00188 [mN/m]	surface tension liquid-gas, w2 = 0.0034 [mN/m]	surface tension liquid-gas, w2 = 0.00488 [mN/m]	surface tension liquid-gas, w2 = 0.00638 [mN/m]	surface tension liquid-gas, w2 = 0.00792 [mN/m]
298.15 K	1193.01 ± 2.3	1193.1 ± 2.3	1193.21 ± 2.3	1193.32 ± 2.3	1193.44 ± 2.3	46.3 ± 0.5	46.5 ± 0.5	46.7 ± 0.5	47 ± 0.5	47.3 ± 0.5
303.15 K	1189.68 ± 2.3	1189.78 ± 2.3	1189.89 ± 2.3	1189.98 ± 2.3	1190.11 ± 2.3	46 ± 0.5	46.2 ± 0.5	46.4 ± 0.5	46.7 ± 0.5	47 ± 0.5
308.15 K	1186.36 ± 2.3	1186.45 ± 2.3	1186.56 ± 2.3	1186.66 ± 2.3	1186.79 ± 2.3	45.7 ± 0.5	45.9 ± 0.5	46.2 ± 0.5	46.4 ± 0.5	46.7 ± 0.5
313.15 K	1183.05 ± 2.3	1183.14 ± 2.3	1183.25 ± 2.3	1183.35 ± 2.3	1183.48 ± 2.3	45.4 ± 0.5	45.7 ± 0.5	45.9 ± 0.5	46.1 ± 0.5	46.4 ± 0.5
318.15 K	1179.76 ± 2.3	1179.85 ± 2.3	1179.96 ± 2.3	1180.06 ± 2.3	1180.19 ± 2.3	45.1 ± 0.5	45.3 ± 0.5	45.6 ± 0.5	45.8 ± 0.5	46.1 ± 0.5
323.15 K	1176.48 ± 2.3	1176.57 ± 2.3	1176.68 ± 2.3	1176.78 ± 2.3	1176.91 ± 2.3	44.8 ± 0.5	45.1 ± 0.5	45.3 ± 0.5	45.5 ± 0.5	45.8 ± 0.5
328.15 K	1173.21 ± 2.3	1173.31 ± 2.3	1173.42 ± 2.3	1173.52 ± 2.3	1173.65 ± 2.3	44.6 ± 0.5	44.9 ± 0.5	45.1 ± 0.5	45.3 ± 0.5	45.6 ± 0.5
333.15 K	1169.97 ± 2.3	1170.06 ± 2.3	1170.17 ± 2.3	1170.27 ± 2.3	1170.4 ± 2.3	44.4 ± 0.5	44.7 ± 0.5	44.8 ± 0.5	45.1 ± 0.5	45.3 ± 0.5
338.15 K	1166.74 ± 2.3	1166.82 ± 2.3	1166.93 ± 2.3	1167.03 ± 2.3	1167.16 ± 2.3	44.2 ± 0.5	44.5 ± 0.5	44.6 ± 0.5	44.9 ± 0.5	45.1 ± 0.5

CCn1cc[n+](CCOC)c1.N#C[N-]C#N [1-ethyl-3-(2-methoxyethyl)imidazolium dicyanamide] + O
Conditions	mass density, w2 = 0.00148 [kg/m3]	mass density, w2 = 0.00277 [kg/m3]	mass density, w2 = 0.00434 [kg/m3]	mass density, w2 = 0.0055 [kg/m3]	mass density, w2 = 0.00719 [kg/m3]	surface tension liquid-gas, w2 = 0.00031 [mN/m]	surface tension liquid-gas, w2 = 0.00175 [mN/m]	surface tension liquid-gas, w2 = 0.00317 [mN/m]	surface tension liquid-gas, w2 = 0.00461 [mN/m]	surface tension liquid-gas, w2 = 0.00609 [mN/m]
298.15 K	1113.35 ± 2.3	1113.18 ± 2.3	1112.96 ± 2.3	1112.77 ± 2.3	1112.46 ± 2.3	44.7 ± 0.5	44.9 ± 0.5	45.3 ± 0.5	45.6 ± 0.5	45.9 ± 0.5
303.15 K	1109.96 ± 2.3	1109.78 ± 2.3	1109.57 ± 2.3	1109.37 ± 2.3	1109.06 ± 2.3	44.4 ± 0.5	44.7 ± 0.5	45 ± 0.5	45.3 ± 0.5	45.6 ± 0.5
308.15 K	1106.58 ± 2.3	1106.41 ± 2.3	1106.19 ± 2.3	1106 ± 2.3	1105.69 ± 2.3	44.1 ± 0.5	44.4 ± 0.5	44.7 ± 0.5	45 ± 0.5	45.3 ± 0.5
313.15 K	1103.23 ± 2.3	1103.05 ± 2.3	1102.83 ± 2.3	1102.64 ± 2.3	1102.33 ± 2.3	43.8 ± 0.5	44.1 ± 0.5	44.4 ± 0.5	44.7 ± 0.5	45 ± 0.5
318.15 K	1099.89 ± 2.3	1099.72 ± 2.3	1099.5 ± 2.3	1099.3 ± 2.3	1098.99 ± 2.3	43.5 ± 0.5	43.8 ± 0.5	44.1 ± 0.5	44.4 ± 0.5	44.7 ± 0.5
323.15 K	1096.58 ± 2.3	1096.4 ± 2.3	1096.18 ± 2.3	1095.98 ± 2.3	1095.66 ± 2.3	43.2 ± 0.5	43.5 ± 0.5	43.8 ± 0.5	44.2 ± 0.5	44.4 ± 0.5
328.15 K	1093.27 ± 2.3	1093.1 ± 2.3	1092.88 ± 2.3	1092.68 ± 2.3	1092.36 ± 2.3	43 ± 0.5	43.3 ± 0.5	43.6 ± 0.5	44 ± 0.5	44.2 ± 0.5
333.15 K	1090 ± 2.3	1089.82 ± 2.3	1089.59 ± 2.3	1089.4 ± 2.3	1089.08 ± 2.3	42.7 ± 0.4	43.1 ± 0.5	43.4 ± 0.5	43.7 ± 0.5	44 ± 0.5
338.15 K	1086.74 ± 2.3	1086.56 ± 2.3	1086.33 ± 2.3	1086.13 ± 2.3	1085.81 ± 2.3	42.4 ± 0.4	42.8 ± 0.4	43.1 ± 0.5	43.4 ± 0.5	43.7 ± 0.5
